Measurements: patent publication US20250241926A1, “HETEROCYCLIC COMPOUNDS FOR USE IN THE TREATMENT OF CANCER” (ARTIOS PHARMA LIMITED, priority 2021, published 2025)

biological target: T1, Human Polθ polymerase domain (aa1820-2590) (Homo sapiens, UniProt O75417); assay: Polθ Polymerase Domain Kinact/Kl Assay (PicoGreen); assay type: biochemical; conditions: covalent inhibitors, kobs vs [I] fit, 0.8 nM Polθ, 100 nM DNA substrate
T1 construct: Human Polθ polymerase domain (aa1820-2590) was expressed in E. Coli; made in house; host or cells: E. coli
T1 sequence (O75417 1820-2590): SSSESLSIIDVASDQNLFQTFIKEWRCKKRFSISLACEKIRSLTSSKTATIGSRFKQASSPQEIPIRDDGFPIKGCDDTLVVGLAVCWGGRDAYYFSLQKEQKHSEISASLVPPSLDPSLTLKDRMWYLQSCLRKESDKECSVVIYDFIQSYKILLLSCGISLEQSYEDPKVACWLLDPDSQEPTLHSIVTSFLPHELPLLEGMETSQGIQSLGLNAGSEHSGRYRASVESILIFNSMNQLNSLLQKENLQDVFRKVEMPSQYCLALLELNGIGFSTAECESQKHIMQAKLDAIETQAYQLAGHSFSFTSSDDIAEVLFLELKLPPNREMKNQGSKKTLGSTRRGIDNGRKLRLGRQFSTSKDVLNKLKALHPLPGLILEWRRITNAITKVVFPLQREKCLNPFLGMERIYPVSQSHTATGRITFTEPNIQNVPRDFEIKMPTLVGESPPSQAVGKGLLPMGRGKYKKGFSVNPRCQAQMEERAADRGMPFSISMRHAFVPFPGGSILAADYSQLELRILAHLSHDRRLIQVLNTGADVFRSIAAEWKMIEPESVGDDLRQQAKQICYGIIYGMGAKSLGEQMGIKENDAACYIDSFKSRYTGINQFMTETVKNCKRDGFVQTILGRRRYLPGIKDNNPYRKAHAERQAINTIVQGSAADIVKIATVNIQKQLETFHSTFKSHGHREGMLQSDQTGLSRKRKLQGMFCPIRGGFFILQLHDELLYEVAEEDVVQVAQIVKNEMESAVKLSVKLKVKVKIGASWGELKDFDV
Method in brief: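 E. coli-expressed enzyme (0.8 nM final) was run with 100 nM annealed DNA substrate and dNTPs in Tris pH 7.5 buffer (1% DMSO), with EDTA stops across a time course up to 60 min. Synthesised DNA was read by PicoGreen fluorescence. kobs per inhibitor concentration was fitted from the time courses, and Kinact and KI came from the kobs-vs-[I] plot.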

kinact/KI [M⁻¹ s⁻¹] | Molecule
460000 | C=CC(=O)N1CC(O[C@@H]2CN(CCN3CC[C@H](Nc4nc(C)cc(C(F)(F)F)c4C#N)C(=O)N(C)c4cccc(F)c43)C[C@H]2O)C1 [Example 65A, 2-(((S)-6-(2-((3S/R,4S/R)-3-((1-Acryloylazetidin-3-yl)oxy)-4-hydroxypyrrolidin-1-yl)ethyl)-7-fluoro-1-methyl-2-oxo-1,2,3,4,5,6-hexahydrobenzo[b][1,4]diazocin-3-yl)amino)-6-methyl-4-(trifluoromethyl)nicotinonitrile]
190000 | (S)-2-((6-(2-(3-(4-Acrylo- ylpiperazin-1-yl)azetidin- 1-yl)ethyl)-7-fluoro-1- methyl-2-oxo-1,2,3,4,5,6- hexahydrobenzo[b][1,4] diazocin-3-yl)amino)-6- methyl-4-(trifluorometh- yl)nicotinonitrile [Example 10]
440000 | (S)-2-((6-(2-(4-(1-Acrylo- yl-3-hydroxyazetidin-3- yl)piperidin-1-yl)ethyl)-7- fluoro-1-methyl-2-oxo- 1,2,3,4,5,6-hexahydro- benzo[b][1,4]diazocin-3- yl)amino)-6-methyl-4- (trifluoromethyl)nicotino- nitrile [Example 12]

same assay, conditions: covalent inhibitors, kobs vs [I] fit, 0.8 nM Polθ, 100 nM DNA substrate, read-out: Kinact/KI

kinact/KI [M⁻¹ s⁻¹] | Molecule
120000 | Cc1cc(C(F)(F)F)c(C#N)c(N[C@H]2CCN(C[C@@H]3CN(C4CN(C(=O)/C=C/CN(C)C)C4)CCO3)c3c(F)cccc3N(C)C2=O)n1 [Example 59, 2-(((S)-6-(((S)-4-(1-((E)-4-(Dimethylamino)but-2-enoyl)azetidin-3-yl)morpholin-2-yl)methyl)-7-fluoro-1-methyl-2-oxo-1,2,3,4,5,6-hexahydrobenzo[b][1,4]diazocin-3-yl)amino)-6-methyl-4-(trifluoromethyl)nicotinonitrile]
240000 | Cc1cc(C(F)(F)F)c(C#N)c(N[C@H]2CCN(C[C@H]3CN(C4CN(C(=O)/C=C/CN(C)C)C4)CCO3)c3c(F)cccc3N(C)C2=O)n1 [Example 60, 2-(((S)-6-(((R)-4-(1-((E)-4-(Dimethylamino)but-2-enoyl)azetidin-3-yl)morpholin-2-yl)methyl)-7-fluoro-1-methyl-2-oxo-1,2,3,4,5,6-hexahydrobenzo[b][1,4]diazocin-3-yl)amino)-6-methyl-4-(trifluoromethyl)nicotinonitrile]
860000 | C=CC(=O)N1CC2(CN(CCN3CC[C@H](Nc4nc(C)cc(C(F)(F)F)c4C#N)C(=O)N(C)c4cccc(F)c43)C[C@@H](C)N2)C1 [Example 63, 2-(((S)-6-(2-((R)-2-Acryloyl-6-methyl-2,5,8-triazaspiro[3.5]nonan-8-yl)ethyl)-7-fluoro-1-methyl-2-oxo-1,2,3,4,5,6-hexahydrobenzo[b][1,4]diazocin-3-yl)amino)-6-methyl-4-(trifluoromethyl)nicotinonitrile]
1.8e+06 | C=CC(=O)N1CC2(CN(CCN3CC[C@H](Nc4nc(C)cc(C(F)(F)F)c4C#N)C(=O)N(C)c4cccc(Cl)c43)C[C@@H](C)N2)C1 [Example 64, 2-(((S)-6-(2-((R)-2-Acryloyl-6-methyl-2,5,8-triazaspiro[3.5]nonan-8-yl)ethyl)-7-chloro-1-methyl-2-oxo-1,2,3,4,5,6-hexahydrobenzo[b][1,4]diazocin-3-yl)amino)-6-methyl-4-(trifluoromethyl)nicotinonitrile]
2.4e+06 | C=CC(=O)N1CC(n2cnc(CN3CC[C@H](Nc4nc(C)cc(C(F)(F)F)c4C#N)C(=O)N(C)c4cccc(F)c43)n2)C1 [Example 66, (S)-2-((6-((1-(1-Acryloylazetidin-3-yl)-1H-1,2,4-triazol-3-yl)methyl)-7-fluoro-1-methyl-2-oxo-1,2,3,4,5,6-hexahydrobenzo[b][1,4]diazocin-3-yl)amino)-6-methyl-4-(trifluoromethyl)nicotinonitrile]
1.3e+06 | C=CC(=O)N1CC(c2noc(CN3CC[C@H](Nc4nc(C)cc(C(F)(F)F)c4C#N)C(=O)N(C)c4cccc(F)c43)n2)C1 [Example 67, (S)-2-((6-((3-(1-Acryloylazetidin-3-yl)-1,2,4-oxadiazol-5-yl)methyl)-7-fluoro-1-methyl-2-oxo-1,2,3,4,5,6-hexahydrobenzo[b][1,4]diazocin-3-yl)amino)-6-methyl-4-(trifluoromethyl)nicotinonitrile]
130000 | C=CC(=O)N1CC(c2nnc(CN3CC[C@H](Nc4nc(C)cc(C(F)(F)F)c4C#N)C(=O)N(C)c4cccc(F)c43)[nH]2)C1 [Example 68, (S)-2-((6-((5-(1-Acryloylazetidin-3-yl)-4H-1,2,4-triazol-3-yl)methyl)-7-fluoro-1-methyl-2-oxo-1,2,3,4,5,6-hexahydrobenzo[b][1,4]diazocin-3-yl)amino)-6-methyl-4-(trifluoromethyl)nicotinonitrile]
4.1e+06 | C=CC(=O)N1CC2(CN(CCN3CC[C@H](Nc4nc(C)cc(C(F)(F)F)c4C#N)C(=O)N(C)c4cccc(C)c43)CCN2)C1 [Example 69, (S)-2-((6-(2-(2-Acryloyl-2,5,8-triazaspiro[3.5]nonan-8-yl)ethyl)-1,7-dimethyl-2-oxo-1,2,3,4,5,6-hexahydrobenzo[b][1,4]diazocin-3-yl)amino)-6-methyl-4-(trifluoromethyl)nicotinonitrile]
1.3e+06 | C=CC(=O)N1CC2(CN(CCN3CC[C@H](Nc4nc(C)cc(C(F)(F)F)c4C#N)C(=O)N(CC)c4cccc(F)c43)CCN2)C1 [Example 70, (S)-2-((6-(2-(2-Acryloyl-2,5,8-triazaspiro[3.5]nonan-8-yl)ethyl)-1-ethyl-7-fluoro-2-oxo-1,2,3,4,5,6-hexahydrobenzo[b][1,4]diazocin-3-yl)amino)-6-methyl-4-(trifluoromethyl)nicotinonitrile]
1.4e+06 | C=CC(=O)N1CC2(CN(CCN3CC[C@H](Nc4nc(C)cc(C(F)(F)F)c4C#N)C(=O)N(C)c4cccc(F)c43)CCN2C(C)=O)C1 [Example 71, (S)-2-((6-(2-(5-Acetyl-2-acryloyl-2,5,8-triazaspiro[3.5]nonan-8-yl)ethyl)-7-fluoro-1-methyl-2-oxo-1,2,3,4,5,6-hexahydrobenzo[b][1,4]diazocin-3-yl)amino)-6-methyl-4-(trifluoromethyl)nicotinonitrile]

Molecule | kinact/KI [M⁻¹ s⁻¹]
C=CC(=O)N1CC2(CN(CCN3CC[C@H](Nc4nc(C)cc(C(F)(F)F)c4C#N)C(=O)N(C)c4cccc(F)c43)C[C@@H]3COCCN32)C1 [Example 61, 2-(((S)-6-(2-((R)-1-A cryloyltetrahydro-1′H-spiro[azetidine-3,6′-pyrazino[2,1-c][1,4]oxazin]-8′(7′H)-yl)ethyl)-7-fluoro-1-methyl-2-oxo-1,2,3,4,5,6-hexahydrobenzo[b][1,4]diazocin-3-yl)amino)-6-methyl-4-(trifluoromethyl)nicotinonitrile] | 500000
C=CC(=O)N1CC2(CN(CCN3CC[C@H](Nc4nc(C)cc(C(F)(F)F)c4C#N)C(=O)N(C)c4cccc(F)c43)C[C@H]3COCCN32)C1 [Example 62, 2-(((S)-6-(2-((S)-1-Acryloyltetrahydro-1′H-spiro[azetidine-3,6′-pyrazino[2,1-c][1,4]oxazin]-8′(7′H)-yl)ethyl)-7-fluoro-1-methyl-2-oxo-1,2,3,4,5,6-hexahydrobenzo[b][1,4]diazocin-3-yl)amino)-6-methyl-4-(trifluoromethyl)nicotinonitrile] | 1.8e+06
